These results are taken from article PMC7559834, “Functional and Pharmacological Comparison of Human, Mouse, and Rat Organic Cation Transporter 1 toward Drug and Pesticide Interaction” (International Journal of Molecular Sciences, 2020).

Read-outs that look alike come from different tables or passages of the source.

For data set [1], the target named is T1, human OCT1 (hOCT1) (Homo sapiens, UniProt O15245).
T1 sequence (O15245 1-554): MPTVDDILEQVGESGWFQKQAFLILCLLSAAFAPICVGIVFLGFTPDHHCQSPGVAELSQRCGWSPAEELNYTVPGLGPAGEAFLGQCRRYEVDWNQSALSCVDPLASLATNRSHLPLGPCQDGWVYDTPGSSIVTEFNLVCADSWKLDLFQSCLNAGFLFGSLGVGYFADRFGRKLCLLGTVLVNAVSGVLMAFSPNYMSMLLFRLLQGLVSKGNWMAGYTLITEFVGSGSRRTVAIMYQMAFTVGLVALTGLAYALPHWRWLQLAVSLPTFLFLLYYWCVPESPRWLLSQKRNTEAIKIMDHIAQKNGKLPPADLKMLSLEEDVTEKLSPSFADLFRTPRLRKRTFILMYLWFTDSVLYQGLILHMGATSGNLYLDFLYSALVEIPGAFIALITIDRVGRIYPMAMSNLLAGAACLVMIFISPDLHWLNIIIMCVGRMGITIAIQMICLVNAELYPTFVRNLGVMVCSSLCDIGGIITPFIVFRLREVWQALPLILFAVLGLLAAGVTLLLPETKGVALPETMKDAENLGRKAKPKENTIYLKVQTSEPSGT
The data set is described as follows: cell-based. Further details: gene SLC22A1. To be noted: HEK293, read-out: Inhibitory Effects (%) / hOCT1 / 10 μM.

A short description of data set [2]: inhibition of 3H-MPP uptake in transfected HEK293 cells, % at […]. It is filed as cell-based, Mus musculus. The conditions noted are these: read-out: Inhibitory Effects (%) / hOCT1 / 100 μM.
Data set [3] concerns the target T2, hMATE1 (Homo sapiens, UniProt Q96FL8).
T2 construct: gene SLC47A1; NM_018242.2, stably transfected HEK293 cells
T2 sequence (Q96FL8 1-570): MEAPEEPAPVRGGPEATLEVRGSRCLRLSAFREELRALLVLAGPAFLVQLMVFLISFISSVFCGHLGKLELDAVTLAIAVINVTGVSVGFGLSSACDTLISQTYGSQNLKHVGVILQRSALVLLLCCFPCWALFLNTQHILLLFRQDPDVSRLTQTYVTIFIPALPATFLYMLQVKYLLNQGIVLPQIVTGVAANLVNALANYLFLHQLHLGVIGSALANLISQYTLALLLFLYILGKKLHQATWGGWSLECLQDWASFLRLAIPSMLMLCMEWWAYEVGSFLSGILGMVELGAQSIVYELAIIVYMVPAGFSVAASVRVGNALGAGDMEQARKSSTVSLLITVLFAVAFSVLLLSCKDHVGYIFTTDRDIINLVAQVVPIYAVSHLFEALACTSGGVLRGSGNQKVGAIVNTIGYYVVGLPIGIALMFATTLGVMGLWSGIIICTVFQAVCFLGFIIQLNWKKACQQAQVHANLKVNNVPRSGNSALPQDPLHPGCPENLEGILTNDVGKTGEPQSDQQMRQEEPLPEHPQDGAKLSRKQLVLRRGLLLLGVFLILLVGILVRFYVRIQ
The data set is described as follows: inhibition of […]-metformin uptake in transfected HEK293 cells, % at […]. The conditions noted are these: read-out: Inhibitory Effects (%) / hMATE1 / 10 μM. The class given is cell-based.

Data set [4] has as its target T3, rat Oct1 (rOct1) (Rattus norvegicus, UniProt Q63089).
T3 construct: gene Slc22a1; NM_012697.1, stably transfected HEK293 cells
T3 sequence (Q63089 1-556): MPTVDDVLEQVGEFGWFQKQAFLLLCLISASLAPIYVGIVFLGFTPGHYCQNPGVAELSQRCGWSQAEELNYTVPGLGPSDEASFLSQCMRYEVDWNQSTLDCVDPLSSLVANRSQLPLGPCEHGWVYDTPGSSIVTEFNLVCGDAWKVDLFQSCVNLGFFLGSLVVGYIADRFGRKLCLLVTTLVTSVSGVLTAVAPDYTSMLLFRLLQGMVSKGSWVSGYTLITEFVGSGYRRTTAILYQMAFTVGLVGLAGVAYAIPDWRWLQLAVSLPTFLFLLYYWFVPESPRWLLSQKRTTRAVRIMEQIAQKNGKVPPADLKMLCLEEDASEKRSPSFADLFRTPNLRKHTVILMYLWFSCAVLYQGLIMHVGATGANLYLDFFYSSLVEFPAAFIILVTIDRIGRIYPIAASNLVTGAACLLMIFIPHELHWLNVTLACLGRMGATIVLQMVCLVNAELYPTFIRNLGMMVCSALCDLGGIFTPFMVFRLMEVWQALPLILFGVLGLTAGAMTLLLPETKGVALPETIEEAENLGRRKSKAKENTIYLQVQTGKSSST
The data set is described as follows: inhibition of 3H-MPP uptake in transfected HEK293 cells. It is filed as cell-based.

The target of data set [5] is T4, mouse Oct1 (mOct1) (Mus musculus, UniProt O08966).
T4 construct: gene Slc22a1; NM_009202.5, stably transfected HEK293 cells
T4 sequence (O08966 1-556): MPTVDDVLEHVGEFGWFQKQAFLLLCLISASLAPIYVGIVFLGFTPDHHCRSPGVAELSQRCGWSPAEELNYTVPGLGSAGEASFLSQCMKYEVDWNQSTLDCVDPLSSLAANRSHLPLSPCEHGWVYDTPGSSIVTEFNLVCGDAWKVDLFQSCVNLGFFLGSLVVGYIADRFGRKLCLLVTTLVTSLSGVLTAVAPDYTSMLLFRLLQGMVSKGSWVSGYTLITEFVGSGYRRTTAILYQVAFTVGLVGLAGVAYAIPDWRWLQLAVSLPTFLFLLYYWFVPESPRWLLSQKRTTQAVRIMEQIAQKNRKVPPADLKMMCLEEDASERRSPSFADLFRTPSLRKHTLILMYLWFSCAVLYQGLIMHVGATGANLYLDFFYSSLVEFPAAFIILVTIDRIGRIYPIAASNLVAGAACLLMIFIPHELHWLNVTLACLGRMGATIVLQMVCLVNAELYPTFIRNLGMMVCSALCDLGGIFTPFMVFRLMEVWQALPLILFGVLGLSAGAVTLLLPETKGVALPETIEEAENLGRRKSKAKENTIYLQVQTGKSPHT
The data set is described as above. It is filed as cell-based.

In data set [6] the target is T1, human OCT1 (hOCT1). The data set is described as above. It is filed as cell-based. Further details: gene SLC22A1; NM_003057.2, OCT1*1B allele, stably transfected HEK293 cells.
Substrate in data set [7]: C[n+]1ccc(-c2ccccc2)cc1
The data set is described as follows: concentration-dependent 3H-MPP uptake, Km. It is filed as cell-based, Rattus norvegicus.

Substrate in data set [8]: C[n+]1ccc(-c2ccccc2)cc1
The data set is described as follows: concentration-dependent 3H-MPP uptake, Km. It is filed as cell-based, Mus musculus.

Substrate in data set [9]: C[n+]1ccc(-c2ccccc2)cc1
The data set is described as follows: concentration-dependent 3H-MPP uptake, Km. It is filed as cell-based, Homo sapiens.

As to `Clc1cccc(Cl)c1N=C1NCCN1` [Clonidine], in data set [1], the inhibition at 10 µM was found to be 73%. On to `C=CCOC(Cn1ccnc1)c1ccc(Cl)cc1Cl` (stereo not shown) [Imazalil], for which, in data set [2], the inhibition at 10 µM was 84%. As to `CC(=O)N1CCN(c2ccc(OCC3COC(Cn4ccnc4)(c4ccc(Cl)cc4Cl)O3)cc2)CC1` (stereo not shown) [Ketoconazol], in data set [3], the inhibition at 10 µM was determined as 87%. Usually IC50 stands for the concentration needed to halve the response being measured. A high value points to weaker potency. As to `CCN1/C(=C/c2ccc3ccccc3[n+]2CC)C=Cc2ccccc21` [decynium22], the IC50 in data set [4] came out at 10.5 ± 0.4 µM; in data set [5], 5.3 ± 0.4 µM; in data set [6], 12.1 ± 0.8 µM. For the same molecule, in data set [3], the inhibition at 10 µM was 76%.

B1: rat Oct1 (rOct1) (Rattus norvegicus) (protein)
chain: MPTVDDVLEQVGEFGWFQKQAFLLLCLISASLAPIYVGIVFLGFTPGHYCQNPGVAELSQRCGWSQAEELNYTVPGLGPSDEASFLSQCMRYEVDWNQSTLDCVDPLSSLVANRSQLPLGPCEHGWVYDTPGSSIVTEFNLVCGDAWKVDLFQSCVNLGFFLGSLVVGYIADRFGRKLCLLVTTLVTSVSGVLTAVAPDYTSMLLFRLLQGMVSKGSWVSGYTLITEFVGSGYRRTTAILYQMAFTVGLVGLAGVAYAIPDWRWLQLAVSLPTFLFLLYYWFVPESPRWLLSQKRTTRAVRIMEQIAQKNGKVPPADLKMLCLEEDASEKRSPSFADLFRTPNLRKHTVILMYLWFSCAVLYQGLIMHVGATGANLYLDFFYSSLVEFPAAFIILVTIDRIGRIYPIAASNLVTGAACLLMIFIPHELHWLNVTLACLGRMGATIVLQMVCLVNAELYPTFIRNLGMMVCSALCDLGGIFTPFMVFRLMEVWQALPLILFGVLGLTAGAMTLLLPETKGVALPETIEEAENLGRRKSKAKENTIYLQVQTGKSSST
notes: NM_012697.1, stably transfected HEK293 cells
As usually defined, the Km is the concentration of substrate that gives half-maximal velocity. For B1, the Km in [7] came out at 57 ± 5 µM.

B2: mouse Oct1 (mOct1) (Mus musculus) (protein)
chain: MPTVDDVLEHVGEFGWFQKQAFLLLCLISASLAPIYVGIVFLGFTPDHHCRSPGVAELSQRCGWSPAEELNYTVPGLGSAGEASFLSQCMKYEVDWNQSTLDCVDPLSSLAANRSHLPLSPCEHGWVYDTPGSSIVTEFNLVCGDAWKVDLFQSCVNLGFFLGSLVVGYIADRFGRKLCLLVTTLVTSLSGVLTAVAPDYTSMLLFRLLQGMVSKGSWVSGYTLITEFVGSGYRRTTAILYQVAFTVGLVGLAGVAYAIPDWRWLQLAVSLPTFLFLLYYWFVPESPRWLLSQKRTTQAVRIMEQIAQKNRKVPPADLKMMCLEEDASERRSPSFADLFRTPSLRKHTLILMYLWFSCAVLYQGLIMHVGATGANLYLDFFYSSLVEFPAAFIILVTIDRIGRIYPIAASNLVAGAACLLMIFIPHELHWLNVTLACLGRMGATIVLQMVCLVNAELYPTFIRNLGMMVCSALCDLGGIFTPFMVFRLMEVWQALPLILFGVLGLSAGAVTLLLPETKGVALPETIEEAENLGRRKSKAKENTIYLQVQTGKSPHT
notes: NM_009202.5, stably transfected HEK293 cells
For B2, the Km in data set [8] is listed as 36 ± 13 µM.

B3: human OCT1 (hOCT1) (Homo sapiens) (protein)
chain: MPTVDDILEQVGESGWFQKQAFLILCLLSAAFAPICVGIVFLGFTPDHHCQSPGVAELSQRCGWSPAEELNYTVPGLGPAGEAFLGQCRRYEVDWNQSALSCVDPLASLATNRSHLPLGPCQDGWVYDTPGSSIVTEFNLVCADSWKLDLFQSCLNAGFLFGSLGVGYFADRFGRKLCLLGTVLVNAVSGVLMAFSPNYMSMLLFRLLQGLVSKGNWMAGYTLITEFVGSGSRRTVAIMYQMAFTVGLVALTGLAYALPHWRWLQLAVSLPTFLFLLYYWCVPESPRWLLSQKRNTEAIKIMDHIAQKNGKLPPADLKMLSLEEDVTEKLSPSFADLFRTPRLRKRTFILMYLWFTDSVLYQGLILHMGATSGNLYLDFLYSALVEIPGAFIALITIDRVGRIYPMAMSNLLAGAACLVMIFISPDLHWLNIIIMCVGRMGITIAIQMICLVNAELYPTFVRNLGVMVCSSLCDIGGIITPFIVFRLREVWQALPLILFAVLGLLAAGVTLLLPETKGVALPETMKDAENLGRKAKPKENTIYLKVQTSEPSGT
notes: NM_003057.2, OCT1*1B allele, stably transfected HEK293 cells
Consider B3, for which the Km in data set [9] came out at 73 ± 7 µM.
